Measured values from US10150736B2, “Haptens and immunoreactive agents and use thereof for producing family antibodies and immunoassays for quinolones” (Consejo Superior de Investigaciones Cientificas (CSIC), priority 2010, dated 2018).
Values after ≈ are worked out from the molar mass of the structure shown.

Tests used:
Type in all cases: binding, rabbit
[1] = tested on: antibodies developed with immunoreactive agents described herein; assay: Determination of cross-reactivity by ELISA; conditions: for % CR (cross-reactivity): (DI50 CPFX/DI50 of tested compounds)×100; for IC50: competitive ELISA, antiserum and immunoreactive agent not named
Procedure: (§1) Microtiter plates were coated with corresponding coating antigen (indirect format) or antiserum (direct format) dissolved in coating buffer (100 μL/well) overnight at 4° C. or during 4 hours at room temperature and covered with airtight adhesive plates. Subsequently, plates were washed with PBST (four times, 300 μL/well) and quinolone patters were added (0.01 nM-10000 nM, in PBST, 50 μL/well) followed by the corresponding antiserum (indirect format) or enzymatic tracer (direct format) (50 μL/well) in microtiter plates. After 30 minutes at room temperature, plates were washed as described above and, in the case of indirect format, a solution of antilgG rabbit IgG labelled with HRP (1/6000 in PBST) (100 μl/well) was added and incubated for 30 minutes at room temperature. Plates were washed again, and for both formats, substrate solution was added (100 μL/well). Color development was stopped after 30 minutes at room temperature with […] (50 μL/well), and absorbance was read at 450 nm. Standard curves were adjusted to a four parameter equation, using the following formula: Y−[(A−B)/1−[x/C)D]+B, where A represents maximum absorbance, B represents minimum absorbance, C represents the concentration producing 50% of maximum absorbance, and D represents the tangent at the inflection point of sigmoid curve.
Stock solutions were prepared at a concentration of […] for different quinolones and other antibiotics in sodium hydroxide ([…]) and measured by ELISA. Cross-reactivity values were calculated according to the equation below: (DI50 CPFX/DI50 of tested compounds)×100.

antiserum (As) 171 [2] = assay: Competitive ELISA for ciprofloxacin, antiserum 171, coating antigen (indirect format)
Procedure: (§2) Immunization protocol was conducted in female white rabbits from New Zealand weighing 1-2 Kg, as described previously (Salvador, Analytical Chemistry. 2007, 79, 3734-3740). Immunogens (100 μg) dissolved in PBS (0.5 mL) were emulsified with Freund's adjuvant, completely the first time and the remainder incompletely, in 1:1 ratio. They were rapidly injected intradermally in different places of the host animal back (one injection per month). Antibody titers evolution was assessed by measuring serial dilutions binding of different antiserum in microtiter plates coated with the corresponding immunoreactive agent. After observing an acceptable antibody titer, animals were bled to death and their blood was collected in Vacutainer tubes fitted with a serum separating gel. Antiserum were obtained by centrifugation and stored at −80° C. in the presence of 0.02% NaN3.
as §1, with “Plates were washed again, and for both formats, substrate solution was added (100 μL/well).” left out

antiserum (As) 172 = assay: Competitive ELISA for ciprofloxacin, antiserum 172, coating antigen (indirect format)
Procedure: as §2
as §1, with “Plates were washed again, and for both formats, substrate solution was added (100 μL/well).” left out

antiserum (As) 171 [3] = assay: Competitive ELISA for ciprofloxacin, antiserum 171 with HRP conjugate I31 (enzymatic tracer); conditions: As 171 dilution 1/8000; IR I31 0.0625 μg/mL
Procedure: as §2, with “After observing an acceptable antibody titer, animals were bled to death and their blood was collected in Vacutainer tubes fitted with a serum separating gel. Antiserum were obtained by centrifugation and stored at −80° C. in the presence of 0.02% NaN3.” left out
Microtiter plates were coated with corresponding coating antigen (indirect format) or antiserum (direct format) dissolved in coating buffer (100 μL/well) overnight at 4° C. or during 4 hours at room temperature and covered with airtight adhesive plates. […] Color development was stopped after 30 minutes at room temperature with […] (50 μL/well), and absorbance was read at 450 nm. Standard curves were adjusted to a four parameter equation, using the following formula: Y−[(A−B)/1−[x/C)D]+B, where A represents maximum absorbance, B represents minimum absorbance, C represents the concentration producing 50% of maximum absorbance, and D represents the tangent at the inflection point of sigmoid curve.

antiserum (As) 173 = assay: Competitive ELISA for ciprofloxacin, antiserum 173, coating antigen (indirect format)
Procedure: as §2
as §1, with “Plates were washed again, and for both formats, substrate solution was added (100 μL/well).” left out

| IC50 [1] | Compound | % CR (cross-reactivity) [1] | other results |
| --- | --- | --- | --- |
| 0.77 ± 0.27 μg-L^−1 | O=C(O)c1cn(C2CC2)c2cc(N3CCNCC3)c(F)cc2c1=O [Ciprofloxacin] | 100% | IC50 (antiserum (As) 171 [2]; As 171 dilution 1/16000, IR I16 2.5 μg/mL): 0.0164 µg/mL (≈ 0.0495 µM); IC50 (antiserum (As) 171 [2]; As 171 dilution 1/16000, IR I26 0.25 μg/mL): 0.00166 µg/mL (≈ 0.00501 µM); IC50 (antiserum (As) 171 [2]; As 171 dilution 1/128000, IR I19 0.0156 μg/mL): 0.00481 µg/mL (≈ 0.0145 µM); IC50 (antiserum (As) 172; As 172 dilution 1/4000, IR I16 2.5 μg/mL): 0.03839 µg/mL (≈ 0.116 µM); IC50 (antiserum (As) 172; As 172 dilution 1/4000, IR I26 0.25 μg/mL): 0.01156 µg/mL (≈ 0.0349 µM); IC50 (antiserum (As) 172; As 172 dilution 1/32000, IR I19 0.0156 μg/mL): 0.0276 µg/mL (≈ 0.0833 µM); IC50 (antiserum (As) 171 [3]): 0.00081 µg/mL (≈ 0.00244 µM); IC50 (antiserum (As) 173; As 173 dilution 1/16000, IR I16 5 μg/mL): 0.13468 µg/mL (≈ 0.406 µM); IC50 (antiserum (As) 173; As 173 dilution 1/16000, IR I26 0.25 μg/mL): 0.00149 µg/mL (≈ 0.0045 µM); IC50 (antiserum (As) 173; As 173 dilution 1/128000, IR I19 0.0156 μg/mL): 0.04855 µg/mL (≈ 0.147 µM) |
| 7.31 μg-L^−1 | CN1C[C@@H]2C[C@H]1CN2c1cc2c(cc1F)c(=O)c(C(=O)O)cn2C1CC1 [Danofloxacin] | 8% |  |
| 0.65 μg-L^−1 | CCN1CCN(c2cc3c(cc2F)c(=O)c(C(=O)O)cn3C2CC2)CC1 [Enrofloxacin] | 95% |  |
| 3.91 μg-L^−1 | CC1CCc2cc(F)cc3c(=O)c(C(=O)O)cn1c23 (stereo not drawn) [Flumequine] | 22% |  |
| 0.78 μg-L^−1 | CCn1cc(C(=O)O)c(=O)c2cc(F)c(N3CCNCC3)cc21 [Norfloxacin] | 81% |  |

More lines, now with the values behind:

| Compound | IC50 [1] | % CR (cross-reactivity) [1] | other results |
| --- | --- | --- | --- |
| CC1(C)S[C@@H]2[C@H](NC(=O)[C@H](N)c3ccccc3)C(=O)N2[C@H]1C(=O)O [Ampicillin] | >1000 μg-L^−1 | <0.2% |  |
| O=C(N[C@H](CO)[C@H](O)c1ccc([N+](=O)[O-])cc1)C(Cl)Cl [Chloramphenicol] | >1000 μg-L^−1 | <0.2% |  |
| CN1CCN(c2cc3c(cc2F)c(=O)c(C(=O)O)cn3-c2ccc(F)cc2)CC1 [Difloxacin] | 0.91 μg-L^−1 | 75% |  |
| CN1CCN(c2c(F)cc3c(=O)c(C(=O)O)cn4c3c2OCN4C)CC1 [Marbofloxacin] | 4.30 μg-L^−1 | 28% |  |
| CCn1cc(C(=O)O)c(=O)c2cc3c(cc21)OCO3 [Oxolinic acid] | 23.53 μg-L^−1 | 4% |  |
| O=C(O)c1cn(-c2ccc(F)cc2)c2cc(N3CCNCC3)c(F)cc2c1=O [Sarafloxacin] | 0.96 μg-L^−1 | 80% |  |
| Cc1cc(C)nc(NS(=O)(=O)c2ccc(N)cc2)n1 [Sulfamethazine] | >1000 μg-L^−1 | <0.2% |  |
| Nc1ccc(S(=O)(=O)Nc2nccs2)cc1 [Sulfathiazole] | >1000 μg-L^−1 | <0.2% |  |
